According to US4678809A, “Injectable fomulations of disulfiram for the treatment of alcoholism” (priority 1985, dated 1987):
“Also recorded” adds a separate entry of the source. Like-named read-outs stand apart in the source and are kept apart here.

Key:
[1] = Gamma irradiation: sterility and chemical stability; format: physicochemical; conditions: after gamma irradiation
Description: In order to be suitable for injection, the formulations must be sterile. […] Gamma irradiation was therefore used as the best available technique.
A Best Industries Gammaradiator 100 Cs-137 irradiator was used. The disulfiram unit doses were placed in the 20×20 cm irradiation chamber, 30 cm from a 1800 curie Cesium-137 source emitting 660 KeV gamma rays. The exposure rate at the point of irradiation was 90 R/min. A filter was placed in the beam to ensure a uniform exposure at the floor of the irradiation chamber. A total exposure of 50,000 R was administered. Prior to injection, approximately 10 cc of sterile normal saline was drawn up into the syringe which was then shaken vigorously to suspend the DSF powder. The resultant slurry could then be readily injected through a wide bore (e.g. 14 gauge) needle.

alcoholic human subjects [2] = experiment: Clinical study: tolerability, injection site and systemic effects; format: in vivo; conditions: 250 mg every morning, two subjects
Protocol: (§1) Two alcoholic human subjects were studied: Subject No.1 and subject No. 2 a person.
(§2) Each subject discontinued oral disulfiram one week before commencing the study. On day zero, each fasted from the preceding midnight, then received a standard alcohol challenge (0.15 G/kg). After eating a meal, and confirming by breath testing (with an Alco-Sensor III) that the blood ethanol concentration had fallen to zero, subject No. 1 received a dose of 1 G disulfiram subcutaneously. The drug was administered in the upper outer quadrant of the right buttock with aseptic precautions using a 14 G needle, after preparing the skin with infiltration of local anesthetic. A control injection of sterile normal saline was administered to the left buttock. Subject No. 2 received 2 G disulfiram in a similar fashion.
(§3) A similar alcohol challenge was then repeated on days 7, 14, 21, and 28 after the injection. A physical examination was performed at each visit and the injection site examined.

alcoholic human subjects [3] = experiment: Clinical study: subjective and clinical response to alcohol challenge; format: in vivo
Protocol: as §1, §2, §3
Subjective responses--the subject was asked to state aloud the number in the following table which most closely accorded with the way he or she felt at the moment. This response was executed every five minutes, following the alcohol challenge, for a two hour period.

acetaldehyde in breath = experiment: Clinical study: peak acetaldehyde concentration in the breath after alcohol challenge; format: in vivo, human
Protocol: (§4) The method utilizes a Pyrex glass gas-collecting tube (internal volume approximately 300 cc) sealed at both ends with Teflon® taps. A side-port sealed with a Neoprene rubber septum permits sampling of the contents. The tube is first heated to approximately 70° C. to prevent any condensation from the breath. The subject then blows forcefully into the tube, and the Teflon taps are closed at the end of expiration while the tube is still in the subject's mouth. The tube is then taken to the laboratory, where, after reheating to 70° C., a 2.0 ml sample of the breath is aspirated through the Neoprene septum with a heated syringe and immediately injected into a Gas Chromatograph, for assay of ethanol and acetaldehyde by a standard flame-ionization detection technique. (The method has been described by Phillips et al. in Alcoholism: Clinical & Experimental Research 1984; 8:293-296.)
(§5) Each subject discontinued oral disulfiram one week before commencing the study. On day zero, each fasted from the preceding midnight, then received a standard alcohol challenge (0.15 G/kg). After eating a meal, and confirming by breath testing (with an Alco-Sensor III) that the blood ethanol concentration had fallen to zero, subject No. 1 received a dose of 1 G disulfiram subcutaneously. […]

ethanol in breath = experiment: Clinical study: peak ethanol concentration in the breath after alcohol challenge; format: in vivo, human; conditions: compared to peak prior to treatment
Protocol: as §4, §5

[4] = cited from earlier work
aldehyde dehydrogenase = conditions: thiol groups, cited from earlier work
[5] = tested on: dopamine beta hydroxylase; conditions: cited from earlier work
alcoholic humans = conditions: cited from earlier work
[6] = in vivo; cited from earlier work
[7] = Local and systemic toxicity after subcutaneous implantation in rats
Description: Two groups of animals were studied: a test group receiving the subcutaneous C-14-disulfiram-PLGA implant, and a control group receiving subcutaneous uncompounded C-14-disulfiram. Each group comprised five Wistar CD-1 male rats weighing between 100-120 g. After anesthesia with Penthrane (Abbott Laboratories), a slit was cut in the skin of the interscapular region and a small subcutaneous pocket was dissected, large enough for the introduction of the 1/8 inch diameter rods. Each rat received 500 mg of the 20% composite rods (containing 100 mg C-14-disulfiram and 400 mg PLFA) and the wound was closed with clips. […] No attempt was made to preserve strict asepsis during these procedures.
All rats were individually housed in metabolic cages to facilitate the separate collection of urine and feces. Prior to implantation, their fecal and urine samples were collected to determine background counts. Subsequent samples of all excreted urine and feces were collected on days 1,2,7,9,11, 15,18,22,25,29,32,39,46,53,60,67,74,81 and 88 after implantation. Urine samples were assayed for C-14 labelled material in a Beckman LS-230 liquid scintillation counter, and the excretion was calculated as the mass of implanted disulfiram which contained an equivalent amount of radiolabel. Feces were combusted to 14-CO2 with a Harvey Biological oxidizer and absorbed in oxyfluor-CO2 (New England Nuclear) for counting. […]

[8] = pre-treatment with DSF, Lundwall et al.

SMILES: CCN(CC)C(=S)SSC(=S)N(CC)CC [disulfiram]
- chemical stability of irradiated samples [1]: did not demonstrate any reduction in the concentration of disulfiram
- adverse effects of oral disulfiram before the study (alcoholic human subjects [2]): no adverse effects
- onset of diaphoresis after ethanol challenge, Subject No. 1 (alcoholic human subjects [3]; 1 G disulfiram, day 7): 20 min
- diaphoresis, Subject No. 1 (alcoholic human subjects [3]; 1 G disulfiram, day 7, duration of the diaphoretic period): 10 min
- subjective effects following ethanol challenges, Subject No. 1 (alcoholic human subjects [3]; 1 G disulfiram, entire four weeks): no adverse subjective effects
- subjective discomfort following ethanol challenge, Subject No. 2 (alcoholic human subjects [3]; 2 G disulfiram, day 7): dizziness, facial flushing, blurred vision and headache, and their conjunctivae were observed to be injected
- subjective discomfort score, Subject No. 2, at 20 minutes (alcoholic human subjects [3]; 2 G disulfiram, day 7, 20 minutes, scale 1 Very well to 5 Terrible, 3 = A little unwell): 3
- subjective discomfort score, Subject No. 2, at 40 minutes (alcoholic human subjects [3]; 2 G disulfiram, day 7, 40 minutes, scale 1 Very well to 5 Terrible, 3 = A little unwell): 3
- effects following ethanol challenge, Subject No. 2, day 28 (alcoholic human subjects [3]; 2 G disulfiram, day 28): no unpleasant symptoms
- positive results of alcohol challenges (symptoms) (alcoholic human subjects [3]; after DSF injection, human subjects): elevated skin temperatures, dizziness, facial flushing, headache, and blurring of vision
- peak acetaldehyde concentration in breath, Subject No. 1 (acetaldehyde in breath; 1 G, compared to peak prior to treatment): elevated peak in Subject No. 1 on day 7
- acetaldehyde following consumption of alcohol (acetaldehyde in breath; FIG. 3, after injection of DSF): elevated levels of acetaldehyde
- peak ethanol concentration in breath, Subject No. 1 (ethanol in breath; 1 G): elevated peak in subject No. 1, on days 7 and 14
- peak ethanol concentration in breath, Subject No. 2 (ethanol in breath; 2 G): only a mild elevation in subject No. 2 on day 7
- solubility of DSF in water [4]: 0.02 G/100 ml
- solubility in water (in words) ([4]; listed as DSF): poorly soluble in water; also recorded: near insolubility in water
- inactivation of aldehyde dehydrogenase (aldehyde dehydrogenase): inactivating aldehyde dehydrogenase
- inactivation of aldehyde dehydrogenase (aldehyde dehydrogenase; listed as DSF): inactivates aldehyde dehydrogenase by irreversible disulfide interchange reactions with thiol groups
- inhibition of dopamine beta hydroxylase [5]: inhibits dopamine beta hydroxylase
- end of typical response after consuming alcohol (alcoholic humans; [8]): ≤ 30 min
- onset of typical response after consuming alcohol (alcoholic humans; [8]): five to ten
- Disulfiram-Ethanol Reaction symptoms (alcoholic humans; pretreatment with DSF, then ethyl alcohol, listed as DSF): nausea, palpitations, flushing, hyperventilation and hypotension
- excretion of metabolites [6]: the breakdown products are promptly excreted
- metabolism in the blood and liver [6]: very rapidly metabolized in the blood and liver
- local or systemic toxicity [7]: No evidence of local or systemic toxicity was observed

SMILES: S=C=S [carbon disulfide]
- excretion of metabolites [6]: a volatile compound excreted in the breath
